The test system of data set [1] is L. donovani axenic amastigotes. The settings on record: cited from earlier work.
The subject of the next data set is T. b. brucei. The settings on record: cited from earlier work.
Another data set deals with mammalian tubulin. The settings on record: read-out: IC50 against mammalian tubulin; cited from earlier work.
Data set [2] concerns L. donovani axenic amastigotes. The data set is classed as cell-based. To be noted: Leishmania donovani, read-out: IC50 versus L. donovani axenic amastigotes.
The next data set deals with TSU-Pr1. The data set can be described thus: SRB growth inhibition assay, TSU-Pr1 bladder cancer cell line. The data set is classed as cell-based. To be noted: Homo sapiens, TSU-Pr1, 96 h, read-out: Cancer cell line IC50, TSU-Pr1.
In a further data set the test system is MCF7. Kind of data set: SRB growth inhibition assay, MCF-7 breast cancer cell line. The data set is classed as cell-based. To be noted: Homo sapiens, MCF7, 96 h, read-out: Cancer cell line IC50, MCF7.
Another data set relates to HT29. The data set can be described thus: SRB growth inhibition assay, HT-29 colon cancer cell line. The data set is classed as cell-based. The settings on record: Homo sapiens, HT-29, 96 h, read-out: Cancer cell line IC50, HT29.
The next data set has as its system PPC1. The data set can be described thus: SRB growth inhibition assay, PPC-1 prostate cancer cell line. The class given is cell-based. To be noted: Homo sapiens, PPC-1, 96 h, read-out: Cancer cell line IC50, PPC1.
The next data set concerns LNCaP. The data set can be described thus: SRB growth inhibition assay, LNCaP prostate cancer cell line. The data set is classed as cell-based. The settings on record: Homo sapiens, 96 h, read-out: Cancer cell line IC50, LNCaP.
The subject of the next data set is PC3. The data set can be described thus: SRB growth inhibition assay, PC-3 prostate cancer cell line. The class given is cell-based. To be noted: Homo sapiens, PC-3, 96 h, read-out: Cancer cell line IC50, PC3.
The conditions of data set [3]: phase I and phase II clinical trials; cited from earlier work.
Data set [4] concerns the target T1, colchicine site of mammalian tubulin (Sus scrofa, UniProt P02550+P02554). To be noted: cited from earlier work.
For data set [5] the following is noted: cited from earlier work.
For another data set, the system named is Vero cells. Kind of data set: Vero cell cytotoxicity. The data set is classed as cell-based, African green monkey. To be noted: Chlorocebus sabaeus, read-out: IC50 versus Vero Cells.
The target in data set [6] is T1, colchicine site of mammalian tubulin. Kind of data set: Competition with MTPT for the colchicine site. To be noted: 5 μM mammalian tubulin, 5 μM MTPT. The data set is classed as binding.

For `CCCN(CCC)c1c([N+](=O)[O-])cc(S(=O)(=O)Nc2ccccc2)cc1[N+](=O)[O-]` [Compound 2, N1-phenyl-3,5-dinitro-N4,N4-di-n-propylsulfanilamide], in data set [1], the “Activity against Leishmania donovani axenic amastigotes (in words)” value is listed as “low micromolar activity”. Besides, the “Activity against Trypanosoma brucei bloodstream forms (in words)” value in the data set with T. b. brucei was “mid-nanomolar activity”.

Turning to `COc1ccc(NS(=O)(=O)c2c(F)c(F)c(F)c(F)c2F)cc1NC(N)=O` [Compound 30], the IC50 in the data set on mammalian tubulin was 2100 nM.

Take `N=C(N)c1ccc(OCCCCCOc2ccc(C(=N)N)cc2)cc1` [Pentamidine]: the IC50 in data set [2] is 3200 ± 1500 nM.

Take `CC[C@]1(O)C[C@@H]2CN(CCc3c([nH]c4ccccc34)[C@@](C(=O)OC)(c3cc4c(cc3OC)N(C)[C@H]3[C@@](O)(C(=O)OC)[C@H](OC(C)=O)[C@]5(CC)C=CCN6CC[C@]43[C@@H]65)C2)C1` [Vinblastine]: the IC50 with TSU-Pr1 came to 1.6 ± 0.08 nM; in the data set with MCF7, 1.3 ± 0.4 nM; in the data set with HT29, 2.4 ± 0.2 nM; in the data set with PPC1, 1 ± 0.4 nM; with LNCaP, 3.4 ± 0.9 nM; in the data set on PC3 it was 1.4 ± 0.3 nM.

In the case of `COc1ccc(S(=O)(=O)Nc2cccnc2Nc2ccc(O)cc2)cc1` [Compound 28], the Oral bioavailability result in data set [3] is on record as “orally bioavailable”. Moreover, the IC50 in the data set on mammalian tubulin is 2200 nM. Besides, the “Binding site on mammalian tubulin” value in [4] is given as “bind to the colchicine site”.

Regarding `COc1ccc(NS(=O)(=O)c2c(F)c(F)c(F)c(F)c2F)cc1F` [Compound 29], the “Toxicity in phase II clinical trials” value in [5] is listed as “low levels of toxicity”. Further, in the data set with mammalian tubulin, the IC50 was about 2000 nM. Besides, the “Binding site on mammalian tubulin” value in data set [4] is on record as “bind to the colchicine site”.

For `COc1cc([C@@H]2c3cc4c(cc3[C@H](O)[C@H]3COC(=O)[C@H]23)OCO4)cc(OC)c1OC` [Podophyllotoxin], in the data set with Vero cells, the IC50 stood at 50 ± 30 nM.

`COc1ccc(CCc2cc(OC)c(OC)c(OC)c2)cc1O` [Dihydrocombetastatin A4, dihydrocombretastatin A4]: the results for the “Inhibition (%) of MTPT binding in presence of competitors” value in data set [6] (2 μM competitor), in data set [6] (20 μM competitor) and in [6] (50 μM competitor) were 30 ± 1%, 69 ± 2% and 74 ± 2%, respectively.

A word on the IC50: it is the concentration needed to halve the response being measured.

Values taken from paper PMC3677961 (Chemical biology & drug design, 2008).
